Four molecules from patent US20240373849A1, “INSECT NEUROPEPTIDE ANALOGUES” (THE UNIVERSITY COURT OF THE UNIVERSITY OF GLASGOW, priority 2020, published 2024) can be followed below.

One series deals with T1, CapaR (Drosophila melanogaster, UniProt Q8ITC7).
T1 construct: transiently transfected with the apoaequorin ORF; expressed in transfected cells; host or cells: Drosophila melanogaster S2 cells, transient transfection, expression induced with CuSO4
T1 sequence (Q8ITC7 1-477): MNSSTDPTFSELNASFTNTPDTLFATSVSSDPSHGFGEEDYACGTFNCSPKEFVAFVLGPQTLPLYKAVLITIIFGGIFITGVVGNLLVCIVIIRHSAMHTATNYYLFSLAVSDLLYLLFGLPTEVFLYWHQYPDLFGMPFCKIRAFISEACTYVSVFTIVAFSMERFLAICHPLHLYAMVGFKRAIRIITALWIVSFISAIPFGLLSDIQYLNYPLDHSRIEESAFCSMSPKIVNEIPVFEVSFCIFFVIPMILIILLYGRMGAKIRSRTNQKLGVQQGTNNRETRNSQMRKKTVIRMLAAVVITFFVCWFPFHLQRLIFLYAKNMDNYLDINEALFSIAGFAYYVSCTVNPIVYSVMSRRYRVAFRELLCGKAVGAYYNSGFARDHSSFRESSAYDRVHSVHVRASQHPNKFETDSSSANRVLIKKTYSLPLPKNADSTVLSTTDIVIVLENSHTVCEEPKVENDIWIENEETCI
Nature of the series: Measurement of intracellular Ca2+ in S2 cells transfected with CapaR (agonist response). Format: cell-based. The note with it: 10^−7 M; activity normalised to that of native Capa2 (designated 100%). The procedure: Drosophila melanogaster S2 cells, cultured under standard conditions (1) were transiently transfected with the apoaequorin ORF (Radford J C, Davies S A, Dow J A. Systematic G-protein-coupled receptor analysis in Drosophila melanogaster identifies a leucokinin receptor with novel roles. J Biol Chem. 2002; 277:38810-38817) and a receptor ORF construct, and expression induced using CuSO4. Transfected S2 cells were harvested and incubated with 2.5 μM coelenterazine in the dark at RT for 1-2 h as described (ibid). 25,000 cells were then placed in 135 μl Schneider's medium supplemented with 10% FCS in a well of a white polystyrene 96-well plate (Berthold Technologies). Bioluminescence recordings were carried out using a Mithras LB940 automated 96-well plate reader (Berthold Technologies) and MikroWin software. 15 μl of each of different peptides were applied to final concentrations as required.
Peptides were tested at 10^−7M.
At the end of each recording samples were disrupted by the addition of 100 μl lysis solution, and the [Ca^2+] concentrations calculated as previously described (Rosay P, Davies S A, Yu Y, Sozen A, Kaiser K, et al. Cell-type specific calcium signalling in a Drosophila epithelium. J Cell Sci. 1997; 110:1683-1692).
For the Capa1 and Capa2 peptides, the relevant native control peptide (D. melanogaster Capa1 or Capa2 respectively) was used as a control. Control agonist activity was normalised to 100% and activity of neuropeptide analogues is expressed relative to that.

In series [1] the test system is bumblebees (Bombus terrestris). Nature of the series: Bumblebee acute oral toxicity test. Format: in vivo. The note with it: for safety towards B. terrestris in the bumblebee oral toxicity assay: in vivo. As to the method: Oral toxicity against bumblebees (Bombus terrestris) was determined as previously described:
OECD (2017), Test No. 247: Bumblebee, Acute Oral Toxicity Test, OECD Guidelines for the Testing of Chemicals, Section 2, OECD Publishing, Paris, https://doi.org/10.1787/9789264284128-en.
Example data are provided for peptides, AH56, AH257, AH259 in Tables 4, 5 below. […]
Data were acquired for: feeding behaviour—weight of liquid consumed pre- and post-treatment; lethality (days).
There was no negative impact on feeding behaviour from capa peptides. Acute bumblebee toxicity was also assessed for other peptide candidates including: AH270, PEG270. Overall, capa peptides are bee safe.

Series [2] deals with T2, Drosophila melanogaster capa GPCR, capaR (Drosophila melanogaster, UniProt Q8ITC7 1-477).
T2 sequence (looked up): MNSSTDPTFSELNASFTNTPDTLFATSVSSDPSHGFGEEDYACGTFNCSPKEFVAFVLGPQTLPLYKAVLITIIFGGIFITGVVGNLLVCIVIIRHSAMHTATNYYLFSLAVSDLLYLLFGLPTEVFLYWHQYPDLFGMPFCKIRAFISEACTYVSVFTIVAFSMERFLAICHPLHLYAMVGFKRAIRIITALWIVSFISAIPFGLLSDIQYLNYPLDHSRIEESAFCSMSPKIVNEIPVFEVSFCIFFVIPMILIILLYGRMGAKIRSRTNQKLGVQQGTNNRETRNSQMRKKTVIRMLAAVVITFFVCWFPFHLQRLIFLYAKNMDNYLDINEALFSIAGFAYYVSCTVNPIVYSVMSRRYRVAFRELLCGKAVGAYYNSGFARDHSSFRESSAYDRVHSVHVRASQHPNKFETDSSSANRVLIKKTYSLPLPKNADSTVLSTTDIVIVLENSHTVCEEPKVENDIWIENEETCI
Description: cell-based or functional assay.

Where [3] appears, read: Table 11, individual bees, peptide 1 × 10 − 5M or Spirotetramat 25 uM.

Values joined by “and” are separate entries in the source; they are usually repeats but may differ in a detail not shown here. Equal values may be shown once. Square brackets hold non-standard residues; d marks the D form. * marks the point of attachment. Guanidyl = -C(=N+Me2)NMe2 on the N-terminal amine (tetramethylguanidyl cap), CN(C)C(=[N+](C)C)*; NMeV = CN[C@H](C(=O)O)C(C)C

For the molecule `CC(C)C[C@H](N=C(N(C)C)N(C)C)C(=O)N[C@H](C(=O)N[C@@H](C)C(=O)N[C@@H](Cc1ccccc1)C(=O)N1CCC[C@H]1C(=O)N[C@@H](CCCNC(=N)N)C(=O)N(C)[C@H](C(N)=O)C(C)C)C(C)C` [AH257, Guanidyl-LVAFPR-(Me)V-NH2], at CapaR, the “CapaR Ca^2+ Agonist response” value is 85%. In series [1] (1×10^−5 M in 50% sucrose, 0.1% ATPlus, oral), the “lethal effect on bumblebees” value is listed as “No lethal effect”. For the same molecule, the “dead?” value in series [1] (Table 10, individual bees, peptide ×10−5M or imidacloprid 28.3 uM in 50% sucrose, 0.1% ATPlus) is 2. For the same molecule, in series [1], the “safety towards B. terrestris in the bumblebee oral toxicity assay” value is “safe”. Further, the “Est weight sucrose consumed post testing/day” value in series [1] (individual bees, peptide ×10−5M or imidacloprid 28.3 uM in 50% sucrose, 0.1% ATPlus) is 0.4789 grams/day and 0.0824 grams/day and 0.2612 grams/day and 0.3450 grams/day and 0.1265 grams/day and 0.4161 grams/day and 0.2912 grams/day and 0.3677 grams/day and 0.2298 grams/day and 0.3016 grams/day and 0.2869 grams/day. Further, in series [1] (individual bees, post minus pre testing sucrose consumption), the “Feeding impacted? (+ve feeding increased post pep, −ve feeding decreased post pep)” value was 0.0902 grams/day and −0.0881 grams/day and 0.0770 grams/day and 0.0006 grams/day and −0.0429 grams/day and −0.0008 grams/day and −0.0193 grams/day and 0.2039 grams/day and 0.0347 grams/day and 0.0995 grams/day and 0.0416 grams/day. The “T-test outcome, sucrose consumed Pre vs Post” value in series [1] (per treatment group) is listed as “No sig effect”.
`CC(C)C[C@H](NC(=O)CCCCCN)C(=O)N[C@H](C(=O)N(C)[C@@H](C)C(=O)N[C@@H](Cc1ccccc1)C(=O)N1CCC[C@H]1C(=O)N[C@@H](CCCNC(=N)N)C(=O)N(C)[C@H](C(N)=O)C(C)C)C(C)C` [AH270, H-Ahx-LV-(Me)A-FPR-(Me)V-NH2]: at CapaR, the “CapaR Ca^2+ Agonist response” value is on record as 85%. In series [1] (Table 11, group mean, n=10), the “Liquid post exposure (weight), Mean” value is reported as 0.7794 g and the “liquid consumed per day post exposure, Mean” value was 0.1949 g. In series [1] (setting [3]), the “Liquid post exposure (weight)” value is 0.9262 g and 0.7170 g and 1.8815 g and 0.8535 g and 0.6307 g and 0.4568 g and 0.3007 g and 0.5227 g and 1.1365 g and 0.3679 g; the days alive is given as 4 days; the “liquid consumed per day post exposure” value was 0.2316 g and 0.1793 g and 0.4704 g and 0.2134 g and 0.1577 g and 0.1142 g and 0.0752 g and 0.1307 g and 0.2841 g and 0.0920 g. For the same molecule, the “safety towards B. terrestris in the bumblebee oral toxicity assay” value in series [1] is given as “safe”.

B1: AH259 (Guanidyl-L-(Me)V-AFPRV-NH2) (peptide)
peptide: Guanidyl-L[NMeV]AFPRV-NH2
SMILES: CC(C)C[C@H](NC(N(C)C)=[N+](C)C)C(=O)N(C)[C@H](C(=O)N[C@@H](C)C(=O)N[C@@H](Cc1ccccc1)C(=O)N1CCC[C@H]1C(=O)N[C@@H](CCCNC(=N)N)C(=O)N[C@H](C(N)=O)C(C)C)C(C)C
B1: the “CapaR Ca^2+ Agonist response at 10^-7 M” value in series [2] is 12 % of native Capa2 activity.

B2: AH257 (Guanidyl-LVAFPR-(Me)V-NH2) (peptide)
peptide: Guanidyl-LVAFPR[NMeV]-NH2
SMILES: CC(C)C[C@H](NC(N(C)C)=[N+](C)C)C(=O)N[C@H](C(=O)N[C@@H](C)C(=O)N[C@@H](Cc1ccccc1)C(=O)N1CCC[C@H]1C(=O)N[C@@H](CCCNC(=N)N)C(=O)N(C)[C@H](C(N)=O)C(C)C)C(C)C
As to B2, the “CapaR Ca^2+ Agonist response at 10^-7 M” value in series [2] is 85 % of native Capa2 activity.
